Laboratory results: the supplement of paper PMC10307832

Assays:
Test in all cases: relative viability (nuclei count vs DMSO), 5 days (fraction); higher = more cells survive
[1] = compound: CC1=C(C(=O)N2C=CSC2=N1)CCN3CCC(=C(C4=CC=CC=C4)C5=CC=C(C=C5)F)CC3 + CC(=O)Nc1cccc(-n2c(=O)n(C3CC3)c(=O)c3c(Nc4ccc(I)cc4F)n(C)c(=O)c(C)c32)c1 [Trametinib] (partner 0.02 µM)
How it was run: (§1)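 Dosing by pin tool came one day after lung cancer cell lines were seeded in 1536-well plates, using either one drug or a fixed anchor-drug dose plus five library-drug doses (not always all listed) in √10 steps. After 5 days, nuclei were counted on 4× images. Relative viability is treated-well nuclei count divided by vehicle-well nuclei count, and values are medians of duplicate plates.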

[2] = compound: CC1=C(C(=O)N2C=CSC2=N1)CCN3CCC(=C(C4=CC=CC=C4)C5=CC=C(C=C5)F)CC3 + CC1(C)CCC(c2ccc(Cl)cc2)=C(CN2CCN(c3ccc(C(=O)NS(=O)(=O)c4ccc(N[C@H](CCN5CCOCC5)CSc5ccccc5)c(S(=O)(=O)C(F)(F)F)c4)cc3)CC2)C1 [Navitoclax] (partner 0.5 µM)
How it was run: as §1

[3] = compound: CC1=C(C(=O)N2C=CSC2=N1)CCN3CCC(=C(C4=CC=CC=C4)C5=CC=C(C=C5)F)CC3 + N=C(N)NC(=N)NCCc1ccccc1 [Phenformin] (partner 250 µM)
How it was run: as §1

[4] = compound: CC1=C(C(=O)N2C=CSC2=N1)CCN3CCC(=C(C4=CC=CC=C4)C5=CC=C(C=C5)F)CC3 + Nc1nc2[nH]cc(CCc3ccc(C(=O)N[C@@H](CCC(=O)O)C(=O)O)cc3)c2c(=O)[nH]1 [Pemetrexed] (partner 0.2 µM)
How it was run: as §1

| Cell Line | relative viability ([1]; first compound 0.08 µM) | relative viability ([1]; first compound 0.253 µM) | relative viability ([1]; first compound 0.8 µM) | relative viability ([1]; first compound 2.53 µM) | relative viability ([1]; first compound 8 µM) | relative viability ([2]; first compound 0.08 µM) | relative viability ([2]; first compound 0.253 µM) | relative viability ([2]; first compound 0.8 µM) | relative viability ([2]; first compound 2.53 µM) | relative viability ([2]; first compound 8 µM) | relative viability ([3]; first compound 0.08 µM) | relative viability ([3]; first compound 0.253 µM) | relative viability ([3]; first compound 0.8 µM) | relative viability ([3]; first compound 2.53 µM) | relative viability ([3]; first compound 8 µM) | relative viability ([4]; first compound 0.08 µM) | relative viability ([4]; first compound 0.253 µM) | relative viability ([4]; first compound 0.8 µM) | relative viability ([4]; first compound 2.53 µM) | relative viability ([4]; first compound 8 µM) |
| --- | --- | --- | --- | --- | --- | --- | --- | --- | --- | --- | --- | --- | --- | --- | --- | --- | --- | --- | --- | --- |
| CAL-12T | 0.262 | 0.281 | 0.267 | 0.338 | 0.3 | 1.21 | 1.34 | 1.26 | 1.33 | 1.2 | 0.55 | 0.593 | 0.544 | 0.605 | 0.346 | 1.31 | 1.21 | 1.32 | 1.57 | 0.765 |
| NCI-H2405 | 0.711 | – | 0.676 | 0.742 | 0.464 | 0.892 | 0.968 | 1.08 | 0.962 | 0.705 | 0.373 | 0.366 | 0.399 | 0.375 | 0.332 | 1.11 | – | 1.07 | 1.08 | 0.758 |
| NCI-H1395 | 1.05 | 0.97 | 0.992 | 1 | 0.872 | 1.19 | 1.46 | 1.02 | 1.05 | 1.05 | 0.511 | 0.432 | 0.435 | 0.453 | 0.432 | 0.797 | 0.813 | 0.72 | 0.885 | 0.806 |
| NCI-H1648 | 0.437 | 0.378 | 0.427 | 0.465 | 0.417 | – | – | – | – | – | – | – | – | – | – | 0.714 | 0.657 | 0.749 | 0.712 | 0.423 |
| PC-14 | 0.523 | 0.984 | 0.927 | 1.61 | 0.476 | 0.655 | 0.974 | 1.05 | 1.09 | 0.449 | 0.624 | 0.558 | 0.518 | 0.661 | 0.296 | 0.153 | 0.138 | 0.133 | 0.153 | 0.137 |
| A549 | – | – | – | – | – | 1.32 | 1.19 | 1.3 | 1.37 | 0.673 | 0.101 | 0.203 | 0.206 | 0.112 | 0.151 | – | – | – | – | – |
| LOU-NH91 | 0.776 | 0.793 | 0.794 | 0.869 | 0.679 | 0.625 | 0.663 | 0.758 | 0.698 | 0.604 | 0.72 | 0.676 | 0.689 | 0.673 | 0.597 | 0.303 | 0.3 | 0.438 | 0.387 | 0.346 |
| EMC-BAC-2 | 1 | – | 0.931 | 0.926 | 0.858 | 0.906 | 0.95 | 1.28 | 1.16 | 0.707 | 0.536 | 0.495 | 0.497 | 0.526 | 0.414 | 0.379 | 0.482 | 0.49 | 0.461 | 0.386 |
| EBC-1 | – | – | – | – | – | 0.396 | 0.344 | 0.401 | 0.316 | 0.369 | – | – | – | – | – | – | – | – | – | – |
| NCI-H2009 | 0.36 | 0.265 | 0.279 | 0.287 | 0.284 | 1.15 | 1.14 | 1.18 | 1.22 | 1.09 | 0.541 | 0.492 | 0.493 | 0.49 | 0.362 | 1.04 | 1.1 | 1.04 | 1.12 | 0.938 |
